US20180354909A1, “SUBSTITUTED BENZIMIDAZOLIUM, PYRIDO-IMIDAZOLIUM, OR PYRAZINO-IMIDAZOLIUM COMPOUNDS AS CHEMOTHERAPEUTICS” (The Board of Regents of the University of Texas System, priority 2015, published 2018)
Entries after “also recorded” stand apart in the source; their conditions may differ.

System: Mut6
Assay: Cytotox testing (CellTiter-Glo ATP assay) in Mut6 cells
Assay type: cell-based, mouse
Experimental: Mut6 tumor cells were cultured in DMEM/F12 media supplemented by EGF (10 ng/mL), basic FGF (10 ng/mL), heparin (4 ug/mL), glucose (total 21 mM), NaHCO3 (113 μg/mL), Hepes (119 μg/mL), glutamine (2 mM), sodium pyruvate (1 mM), N2 supplement (ThermoFisher Gibco 17502-048, 100×, at 100-fold dilution), B27 supplement (ThermoFisher Gibco 12587-010, 50×, at 100-fold dilution), and penicillin/streptomycin (ThermoFisher, final 1%). Cells were maintained in Ultra-low attachment plate (Corning) as sphere-forming cells. For ATP assays and protein/RNA isolation, cells were plated into 96-well plates or 6-well plated that were coated with poly-lysine (Sigma P6407, 10 μg/mL in PBS, 4 hr at 37° C.) and laminin (ThermoFisher 23017015, ˜5 mg/L in PBS, overnight at 37° C.). MEFs and Astrocytes were cultured in DMEM supplemented with 10% FBS and 1% Penicillin/Streptomycin.
2,000 cells were plated into each well of 96-well plates. About 3 hours later, cells were treated by 12M11, at 800-fold dilution (4 mM stock was diluted into 5 μM final concentration). […] CellTiter-Glo assay (Promega) was performed according to manufacturer's instructions, by adding 20 μL of reagent into each well. Luminescence signal was detected by the PolarStar plate reader (BMG Labtech). Experiments were performed in quadruplicate, and results are presented with mean average −/+ standard deviation. EC505 were calculated by GraphPad Prism6 software.
The compounds described herein were tested using a cell-based cytotoxicity assay against neuronal stem cells in Mut6, which is a mouse glioblastoma model cell line.

With `CCc1n(CC(=O)O[C@@H]2C[C@H](C)CC[C@H]2C(C)C)c2ccccc2[n+]1C.[Cl-]` [Compound 12M11] as the molecule, how does the “activity against Mut6 cells” value (CellTiter-Glo) read?
Its value is “specific nanomolar activity; also recorded: specific toxicity”.

What about the EC50 (Mus musculus, Mut6 cells, FIG. 1, read-out: potency) of the same molecule?
The EC50 was ~100 nM.

And the “cell death on Mut6 cells” value (after six hours of exposure)?
The value was “irrevocable cell death”.
